Source: patent US20240018120A1, “MAGL INHIBITORS” (H. LUNDBECK A/S, priority 2020, published 2024)

Columns and labels:
[1] = tested on: kainic acid seizure model; assay: Kainic acid seizure model in the rat; type: in vivo
Method: Kainic acid is an analog of the excitatory neurotransmitter, glutamate and acts as an agonist of kainic acid receptors. After systemic injection, kainic acid induces prolonged excitatory responses with many of the features of human temporal lobe epilepsy.
Rats, placed in individual Plexiglas cages (33×21×18 cm), are injected with kainic acid (20 mg/kg i.p.). The occurrences of the following symptoms are noted over a 120-minute period 30 minutes after kainic acid injection: forelimb clonus, rearings and rearings with falling, clonic convulsions, tonic convulsions and death. The presence of each symptom and the latencies to the first appearance of the symptoms are measured. The number of forelimb clonus is counted.
12 rats are studied per group. The test is performed partially blind.
The test substances will be evaluated at multiple doses, administered p.o. 240 minutes before the test, and compared with the corresponding vehicle control group (Group 2, administered with 10% HP-b-CD in distilled water, p.o. 240 minutes before the test).
Example 6 was evaluated at 0.3, 1, 3 and 10 mg/kg, and Example 8 was evaluated at 1, 3 and 10 mg/kg, administered p.o. 4 hours before the test, and compared with a vehicle control group (administered with 10% HP-b-CD, p.o. 4 hours before the test).
Diazepam (16 mg/kg) used as reference substance, was administered p.o. 60 minutes before the test (0.5% HP-b-CD) and was compared with vehicle controls.
Quantitative data (latencies) with the test substance was analyzed by comparing treated groups with vehicle control using Kruskal-Wallis test followed by Mann-Whitney U test. Quantitative data with the reference substance will be analysed using Mann-Whitney U test.
Quantal data (frequencies) were analyzed by comparing treated groups with vehicle control using Fisher's Exact Probability tests.

[2] = tested on: cryopreserved human hepatocytes; assay: In vitro human hepatocyte stability; type: in vitro ADME; details: human hepatocytes 0.5×10^6 cells/mL, 1 μM
Method: The metabolic stability of test articles (1 μM) in commercially sourced, pooled donor, cryopreserved human hepatocytes (0.5×10^6 cells/mL) was determined in duplicate. The CLint reactions (250 μL) were initiated by addition of test compound. Aliquots (25 μL) were taken at 0, 15, 30, 45, 60, 90, 120 and 240 minutes and then protein crashed with ice-cold acetonitrile containing internal standard then centrifuged (3220 g for 25 minutes). Supernatant was used for LC-MS/MS analysis. The in vitro half-life (in vitro t½) was determined from the slope value: in vitro t1/2=−0.693/k. Conversion of the in vitro t1/2 (in min) into the scale-up unbound intrinsic clearance (Scaled-up unbound CLint, in mL/min/kg) was done using the following equation (mean of duplicate determinations), with data shown in Table 5: Scaled-up unbound CLint=kV/N×scaling factor. V=incubation volume (0.25 mL); N=number of hepatocytes per well ([…]). Scaling factors for in vivo intrinsic clearance prediction are listed below: […]

O=C(Nc1cccnn1)[C@H]1CC12CCN(C(=O)OC(C(F)(F)F)C(F)(F)F)CC2 [Example 6, 1,1,1,3,3,3-Hexafluoropropan-2-yl (S)-1-(pyridazin-3-ylcarbamoyl)-6-azaspiro[2.5]octane-6-carboxylate]
anticonvulsant effects in the kainic acid seizure test ([1]; dose-range 0.3-10 mg/kg p.o., 4 hours before the test, rat): clear anticonvulsant effects | magnitude of the effects in the kainic acid seizure test compared with reference ([1]; middle-high doses, reference Diazepam 16 mg/kg p.o.): close to those observed with the reference substance, Diazepam | Scaled-up unbound CLint [2]: 5.79 mL/min/kg
